Results on 41 compounds are retold here after publication PMC10424176, “Chamelogk: A Chromatographic Chameleonicity Quantifier to Design Orally Bioavailable Beyond-Rule-of-5 Drugs” (Journal of Medicinal Chemistry, 2023).

Each structure is given as a SMILES string.

As usually defined, the chromatographic logD is a lipophilicity value derived from retention on a column. The low end stands for lower lipophilicity, the high end for higher lipophilicity.

Data set [1] is described as follows: Chamelogk, chromatographic chameleonicity descriptor (PLRP-S RP-HPLC). In kind it is physicochemical. The settings on record: Exp. minus Ext. log k' PLRP-S at 100% MeCN, linear fit at 50, 60, 70% MeCN, 20 mM ammonium acetate pH 7.0, 30 °C.
For data set [2] the following is noted: cited from earlier work.
Data set [3] in a line: log kW^IAM and Δ log kW^IAM (IAM chromatography). The class given is physicochemical. How it is done:
The mobile phases for every descriptor consisted of isocratic solutions of 20 mM ammonium acetate at pH 7.0 and acetonitrile at various percentages (see the specific descriptor). Small amounts of the 55 compounds were dissolved in buffer/acetonitrile mixtures (v/v) at concentrations ranging from 50 to 100 μg/mL. Subsequently, 10 μL of each solution (injection volume) was injected at an isocratic flow rate of 1 mL/min and analyzed at 30 °C (oven temperature). Chromatographic measurements were then analyzed in duplicate based on the specific chromatographic conditions of each descriptor. […] The retention times of the samples were recorded, and the capacity factor was calculated for each mobile phase condition adapting eq 2, where t0 is the retention time of citric acid.

Data set [4] can be described thus: physchem. The class given is physicochemical. The settings on record: pH 7. Here is the method: The mobile phases for every descriptor consisted of isocratic solutions of 20 mM ammonium acetate at pH 7.0 and acetonitrile at various percentages (see the specific descriptor). Small amounts of the 55 compounds were dissolved in buffer/acetonitrile mixtures (v/v) at concentrations ranging from 50 to 100 μg/mL. Subsequently, 10 μL of each solution (injection volume) was injected at an isocratic flow rate of 1 mL/min and analyzed at 30 °C (oven temperature). Chromatographic measurements were then analyzed in duplicate based on the specific chromatographic conditions of each descriptor.
BRlogD[39] required the injection of 55 samples into the X-Bridge column at 60% MeCN (predominant mobile phase constituent). The retention times and dead time (t0, baseline interference) were recorded, and the capacity factor log k’60 was calculated adapting eq 2. Lastly, BRlogD value was calculated from eq 3 [drawing 3] 3

In data set [1], `Oc1ccccc1` [phenol] came in with a Chamelogk of 0.16.
The compound `C=C/C=C/C[C@@H](C)[C@@H](O)[C@H]1C(=O)N[C@@H](CC)C(=O)N(C)CC(=O)N(C)[C@@H](CC(C)C)C(=O)N[C@@H](C(C)C)C(=O)N(C)[C@@H](CC(C)C)C(=O)N[C@@H](C)C(=O)N[C@H](C)C(=O)N(C)[C@@H](CC(C)C)C(=O)N(C)[C@@H](CC(C)C)C(=O)N(C)[C@@H](C(C)C)C(=O)N1C` [voclosporin] displayed a Chamelogk in data set [1] of 1.15.
On the same count and under the same terms, next, `CC(=O)N[C@H](C(=O)N1C[C@H](O)C[C@H]1C(=O)NCc1ccc(-c2scnc2C)cc1)C(C)(C)SCCCCCCNC(=O)C[C@@H]1N=C(c2ccc(Cl)cc2)c2c(sc(C)c2C)-n2c(C)nnc21` [BRD4 degrader AT1]: 1.26.
Take `Cc1ncsc1-c1ccc(CNC(=O)[C@@H]2C[C@@H](O)CN2C(=O)[C@@H](NC(=O)COCCOCCNC(=O)COc2cnc3c(C4CCN(C(=O)c5ccc(OC(F)(F)F)cc5)CC4)ncnc3c2)C(C)(C)C)cc1` [PROTAC-1]: the Chamelogk in data set [1] came out at 1.07.
For `COC(=O)C[C@@H]1N=C(c2ccc(Cl)cc2)c2c(sc(C)c2C)-n2c(C)nnc21` [MS-417], the Chamelogk in data set [1] came to 0.29.
On to `CO[C@H]1C[C@@H]2CC[C@@H](C)[C@@](O)(O2)C(=O)C(=O)N2CCCC[C@H]2C(=O)O[C@H]([C@H](C)C[C@@H]2CC[C@@H](OC(=O)C(C)(CO)CO)[C@H](OC)C2)CC(=O)[C@H](C)/C=C(\C)[C@@H](O)[C@@H](OC)C(=O)[C@H](C)C[C@H](C)/C=C/C=C/C=C/1C` [temsirolimus], for which the ChameLogD in data set [2] was 2. Moreover, the Chamelogk in data set [1] is reported as 0.23.
In data set [1], `O=C1CCC(N2C(=O)c3cccc(F)c3C2=O)C(=O)N1` (stereo not drawn) [4-F-thalidomide] returned a Chamelogk of 0.23.
`CCn1nc(C2CC2)cc1Nc1nc(C(=O)NC)nc2[nH]c3cc(-c4c(C)noc4C)c(OC)cc3c12` [HJB97]: in data set [1], the Chamelogk was 0.15.
Same read-out and setting: to `Cc1ncsc1-c1ccc(CNC(=O)[C@@H]2C[C@H](O)CN2C(=O)[C@@H](NC(=O)C2(C#N)CC2)C(C)(C)C)c(O)c1` [cis-OH-VH298 (S,S,S)] belongs 0.45; to `COC(=O)C[C@@H]1N=C(c2ccc(Cl)cc2)c2c(sc(C(=O)NCCCCCNc3cccc4c3C(=O)N(C3CCC(=O)NC3=O)C4=O)c2C)-n2c(C)nnc21` (stereo partly drawn) [ZXH-3-26], 0.65; to `Cc1ncsc1-c1ccc(CNC(=O)[C@@H]2C[C@@H](O)CN2C(=O)[C@@H](NC(=O)CCOCCOc2ccc(Nc3ncc(C(F)(F)F)c(NCc4cccc(N(C)S(C)(=O)=O)c4)n3)cc2)C(C)(C)C)cc1` [PROTAC FAK degrader-1], 0.79.
Still for that read-out and setting: to `COc1cc2ncnc(Nc3ccc(F)c(Cl)c3)c2cc1OCCCCCOCCOCCC(=O)N[C@H](C(=O)N1C[C@H](O)C[C@H]1C(=O)NCc1ccc(-c2scnc2C)cc1)C(C)(C)C` [gefitinib-based PROTAC 3] belongs 1.36.
Still for that read-out and setting: next, `Cc1sc2c(c1C)C(c1ccc(Cl)cc1)=N[C@@H](CC(=O)NCCCCCCCCNC(=O)COc1cccc3c1C(=O)N(C1CCC(=O)NC1=O)C3=O)c1nnc(C)n1-2` (stereo partly drawn) [dBET6]: 0.86.
In data set [1], `Cc1ncsc1-c1ccc(CNC(=O)[C@@H]2C[C@@H](O)CN2C(=O)[C@@H](NC(=O)CCCCOCCCCCOCCCCCCNc2cccc3c2C(=O)N(C2CCC(=O)NC2=O)C3=O)C(C)(C)C)cc1` (stereo partly drawn) [CRBN-6-5-5-VHL] gave a Chamelogk of 1.05.
Consider `CC(=O)N[C@H](C(=O)N1C[C@@H](O)C[C@H]1C(=O)NCc1ccc(-c2scnc2C)cc1O)C(C)(C)C` [cis-phenol-VH032 (S,S,S)], for which the Chamelogk in data set [1] is given as 0.65.
`CCN1C(=O)c2cc(C)ccc2Nc2ncccc21` [BI-1580] came in with a Chamelogk in data set [1] of 0.1.
`CC(=O)N[C@H](C(=O)N1C[C@H](O)C[C@H]1C(=O)NCc1ccc(-c2scnc2C)cc1O)C(C)(C)C` [phenol-VH032 (S,R,S)] registered a Chamelogk in data set [1] of 0.37.
Same read-out and setting: to `Cc1sc2c(c1C)C(c1ccc(Cl)cc1)=N[C@@H](CC(=O)Nc1ccc(O)cc1)c1nnc(C)n1-2` [OTX-015] belongs 0.64; to `O=C(CCCCC(=O)NCCN1C(=O)c2cccc3c(Sc4ccc(Br)cc4)ccc(c23)C1=O)NCCCCCCNc1cccc2c1C(=O)N(C1CCC(=O)NC1=O)C2=O` (stereo not drawn) [PROTAC Mcl degrader-1], 0.93.
Same read-out and setting: to `Cc1sc2c(c1C)C(c1ccc(Cl)cc1)=N[C@@H](CC(=O)NCCCCNC(=O)COc1cccc3c1C(=O)N(C1CCC(=O)NC1=O)C3=O)c1nnc(C)n1-2` (stereo partly drawn) [dBET1] belongs 0.8; to `Cc1sc2c(c1C)C(c1ccc(Cl)cc1)=NC(CC(N)=O)c1nnc(C)n1-2` (stereo not drawn) [CPI203], 0.54.
`CC[C@@H]1/C=C(\C)C[C@H](C)C[C@H](OC)[C@H]2O[C@@](O)(C(=O)C(=O)N3CCCC[C@H]3C(=O)O[C@H](/C(C)=C/[C@@H]3CC[C@H](Cl)[C@H](OC)C3)[C@H](C)[C@@H](O)CC1=O)[C@H](C)C[C@@H]2OC` [pimecrolimus]: the “log kW^IAM” value in data set [3] (IAM column, extrapolated to 100% buffer from 10 to 50% MeCN, pH 7.0) is 3.35. Besides, the “Δ log kW^IAM” value in data set [3] (polarity, from log kW^IAM and BRlogD (eq 4, 5)) was -1.62. The chromatographic logD in data set [4] was found to be 6.52. The same compound gave a Chamelogk in data set [1] of 0.43.
For the compound `Brc1cnc2ccccc2c1` [3-bromoquinoline], the Chamelogk in data set [1] was 0.13.
`COc1cc(C(=O)NCCOCCOCCOCCC(=O)Nc2cccc3c2C(=O)N(C2CCC(=O)NC2=O)C3=O)ccc1Nc1ncc(C(F)(F)F)c(Oc2cccc3c2C(=O)CC3)n1` (stereo not drawn) [BI-3663] showed a Chamelogk in data set [1] of 0.5.
In data set [1], `CCCN1C(=O)c2ccc(Cl)cc2Nc2ncccc21` [BI-0115] registered a Chamelogk of 0.19.
On the same count and under the same terms, to `O=C1CCC(N2C(=O)c3cccc(O)c3C2=O)C(=O)N1` (stereo not drawn) [4-hydroxy thalidomide] belongs “–0.16”; to `CC(=O)O[C@H]1C(=O)[C@@]2(C)[C@H]([C@H](OC(=O)c3ccccc3)[C@]3(O)C[C@H](OC(=O)[C@H](O)[C@@H](NC(=O)c4ccccc4)c4ccccc4)C(C)=C1C3(C)C)[C@]1(OC(C)=O)CO[C@@H]1C[C@@H]2O` [paclitaxel], 0.15.
Still for that read-out and setting: next, `COc1cc(C(=O)NCCOCCOCCOCC(=O)N[C@H](C(=O)N2C[C@@H](O)C[C@H]2C(=O)NCc2ccc(-c3scnc3C)cc2)C(C)(C)C)ccc1Nc1ncc(C(F)(F)F)c(Oc2cccc3c2C(=O)CC3)n1` [BI-4206]: 0.7.
Still for that read-out and setting: next, `Cc1ncsc1-c1ccc(CNC(=O)[C@@H]2C[C@@H](O)CN2C(=O)[C@@H](NC(=O)C2(C#N)CC2)C(C)(C)C)c(O)c1` [OH-VH298 (S,R,S)]: 0.48; `COc1cc(C(=O)NCCOCCOCCOCC(=O)N[C@H](C(=O)N2C[C@H](O)C[C@H]2C(=O)NCc2ccc(-c3scnc3C)cc2)C(C)(C)C)ccc1Nc1ncc(C(F)(F)F)c(Oc2cccc3c2C(=O)CC3)n1` [BI-0319]: 0.99.
`c1ccc2ccccc2c1` [naphthalene] came in with a Chamelogk in data set [1] of 0.02.
As for `Clc1ccccc1C(c1ccccc1)(c1ccccc1)n1ccnc1` [clotrimazole], the Chamelogk in data set [1] worked out at 0.71.
Consider `Cc1sc2c(c1C)C(c1ccc(Cl)cc1)=N[C@@H](CC(=O)NCCCCCC(=O)NCc1cccc3c1C(=O)N(C1CCC(=O)NC1=O)C3=O)c1nnc(C)n1-2` (stereo partly drawn) [PROTAC BET degrader-10], for which the Chamelogk in data set [1] turned out to be 0.83.
Compound `CC/C(=C(/CC)c1ccc(O)cc1)c1ccc(O)cc1` [diethylstilbestrol] returned a Chamelogk in data set [1] of 0.44.
Same read-out and setting: next, `c1ccc(-c2ccc(C(c3ccccc3)n3ccnc3)cc2)cc1` (stereo not drawn) [bifonazole]: 0.45.
In the case of `CN1C(=O)CN=C(c2ccccc2)c2cc(Cl)ccc21` [diazepam], the Chamelogk was found to be 0.30 in data set [1] and 0.3 in data set [1] (listed as Diazepam).
Take `C[C@]12CCC(=O)C=C1CC[C@@H]1[C@@H]2[C@@H](O)C[C@@]2(C)[C@H]1CC[C@]2(O)C(=O)CO` [hydrocortisone]: the Chamelogk in data set [1] is 0.10; in data set [1] (listed as Hydrocortisone), 0.1.
For the compound `Nc1cccc2c1C(=O)N(C1CCC(=O)NC1=O)C2=O` (stereo not drawn) [pomalidomide], the Chamelogk is 0.00 in data set [1] and 0 in data set [1] (listed as Pomalidomide).
For the compound `CC(C)=O` [acetone], the Chamelogk entry in data set [1] is “–0.13”.
Still for that read-out and setting: next, `Nc1ccc(OCCOCCOCCOCCNc2cccc3c2C(=O)N(C2CCC(=O)NC2=O)C3=O)cc1` (stereo not drawn) [PEG4-PH-NH2-pomalidomide]: 0.12; `CC(=O)N1c2ccc(-c3ccc(C(=O)NCCOCCOCCOCC(=O)N[C@H](C(=O)N4C[C@H](O)C[C@H]4C(=O)NCc4ccc(-c5scnc5C)cc4)C(C)(C)C)cc3)cc2[C@H](Nc2ccc(Cl)cc2)C[C@@H]1C` [MZP-54]: 1.18.
